From patent publication US12077503B2, “Substituted cyclic amides and their use as herbicides” (FMC CORPORATION, priority 2015, dated 2024)

Legend:
Format in all cases: in vivo
[1] = tested on: barnyardgrass (Echinochloa crus-galli); assay: Test G Pre-Emergence Protocol; settings: Echinochloa crus-galli, pre-emergence, 312 h, evaluated after 13 days
Method in brief: (§1)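 Pre-emergence spray, 15.625/62.5/250 g/ha, vehicle acetone:water 50:50 + 0.5% Tween 20, applied 1 d after sowing. Glasshouse 24/16° C, 14 h light, 65% RH, watered twice daily. Visual damage rating at 13 d, 0–100 scale.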

corn (Zea mays) [2] = assay: Test G Pre-Emergence Protocol; settings: Zea mays, pre-emergence, 312 h, evaluated after 13 days
Method in brief: as §1

[3] = tested on: giant foxtail (Setaria faberi); assay: Test G Pre-Emergence Protocol; settings: Setaria faberi, pre-emergence, 312 h, evaluated after 13 days
Method in brief: as §1

[4] = tested on: ivy-leaved morning glory (Ipomoea hederacea); assay: Test G Pre-Emergence Protocol; settings: Ipomoea, pre-emergence, 312 h, evaluated after 13 days
Method in brief: as §1

[5] = tested on: redroot pigweed (Amaranthus retroflexus); assay: Test G Pre-Emergence Protocol; settings: Amaranthus retroflexus, pre-emergence, 312 h, evaluated after 13 days
Method in brief: as §1

[6] = tested on: velvetleaf (Abutilon theophrasti); assay: Test G Pre-Emergence Protocol; settings: Abutilon theophrasti, pre-emergence, 312 h, evaluated after 13 days
Method in brief: as §1

[7] = tested on: barnyardgrass (Echinochloa crus-galli); assay: Test G Post-Emergence Protocol; settings: Echinochloa crus-galli, post-emergence, 312 h
Method in brief: (§2)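 Post-emergence herbicidal damage, scored visually 0–100 at 13 days. Application at 15.625, 62.5 or 250 g/ha onto 8-day-old plants grown under glasshouse control.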

corn (Zea mays) [8] = assay: Test G Post-Emergence Protocol; settings: Zea mays, post-emergence, 312 h
Method in brief: as §2

[9] = tested on: giant foxtail (Setaria faberi); assay: Test G Post-Emergence Protocol; settings: Setaria faberi, post-emergence, 312 h
Method in brief: as §2

[10] = tested on: ivy-leaved morning glory (Ipomoea hederacea); assay: Test G Post-Emergence Protocol; settings: Ipomoea, post-emergence, 312 h
Method in brief: as §2

[11] = tested on: redroot pigweed (Amaranthus retroflexus); assay: Test G Post-Emergence Protocol; settings: Amaranthus retroflexus, post-emergence, 312 h
Method in brief: as §2

[12] = tested on: velvetleaf (Abutilon theophrasti); assay: Test G Post-Emergence Protocol; settings: Abutilon theophrasti, post-emergence, 312 h
Method in brief: as §2

CN1C[C@H](c2ccc(C(F)(F)F)cc2)[C@@H](C(=O)Nc2nccc(C(F)(F)F)c2F)C1=O (racemic) [Compound 1436]
0%: pest or weed control at 15.625 g/ha ([1]; 15.625 g ai/ha, read-out: Barnyard grass damage rating (100=total damage to plant; 0=no damage to plant)) | pest or weed control at 62.5 g/ha ([1]; 62.5 g ai/ha, 100=total damage to plant, 0=no damage to plant, read-out: plant damage rating, Barnyardgrass) | pest or weed control at 250 g/ha ([1]; 250 g ai/ha, read-out: Barnyardgrass damage rating (100=total damage to plant; 0=no damage to plant)) | plant injury at 15.625 g/ha (corn (Zea mays) [2]; 15.625 g ai/ha, read-out: Corn damage rating (100=total damage to plant; 0=no damage to plant)) | plant injury at 62.5 g/ha (corn (Zea mays) [2]; 62.5 g ai/ha, 100=total damage to plant, 0=no damage to plant, read-out: plant damage rating, Corn) | plant injury at 250 g/ha (corn (Zea mays) [2]; 250 g ai/ha, read-out: Corn damage rating (100=total damage to plant; 0=no damage to plant)) | pest or weed control at 15.625 g/ha ([3]; 15.625 g ai/ha, read-out: Foxtail, Giant damage rating (100=total damage to plant; 0=no damage to plant)) | pest or weed control at 62.5 g/ha ([3]; 62.5 g ai/ha, 100=total damage to plant, 0=no damage to plant, read-out: plant damage rating, Foxtail, Giant) | pest or weed control at 250 g/ha ([3]; 250 g ai/ha, read-out: Foxtail, Giant damage rating (100=total damage to plant; 0=no damage to plant)) | pest or weed control at 15.625 g/ha ([4]; 15.625 g ai/ha, read-out: Morning-glory, Ivy-leaved damage rating (100=total damage to plant; 0=no damage to plant)) | pest or weed control at 62.5 g/ha ([4]; 62.5 g ai/ha, 100=total damage to plant, 0=no damage to plant, read-out: plant damage rating, Morningglory, Ivy-leaved) | pest or weed control at 250 g/ha ([4]; 250 g ai/ha, read-out: Morningglory, Ivy-leaved damage rating (100=total damage to plant; 0=no damage to plant)) | pest or weed control at 15.625 g/ha ([5]; 15.625 g ai/ha, read-out: Pigweed, Redroot damage rating (100=total damage to plant; 0=no damage to plant)) | pest or weed control at 62.5 g/ha ([5]; 62.5 g ai/ha, 100=total damage to plant, 0=no damage to plant, read-out: plant damage rating, Pigweed, Redroot) | pest or weed control at 250 g/ha ([5]; 250 g ai/ha, read-out: Pigweed, Redroot damage rating (100=total damage to plant; 0=no damage to plant)) | pest or weed control at 15.625 g/ha ([6]; 15.625 g ai/ha, read-out: Velvetleaf damage rating (100=total damage to plant; 0=no damage to plant)) | pest or weed control at 62.5 g/ha ([6]; 62.5 g ai/ha, 100=total damage to plant, 0=no damage to plant, read-out: plant damage rating, Velvetleaf) | pest or weed control at 250 g/ha ([6]; 250 g ai/ha, read-out: Velvetleaf damage rating (100=total damage to plant; 0=no damage to plant)) | pest or weed control at 15.625 g/ha ([7]; 15.625 g ai/ha, evaluated after 13 days (100=total damage to plant; 0=no damage to plant), read-out: Barnyardgrass damage rating) | pest or weed control at 62.5 g/ha ([7]; 62.5 g ai/ha, evaluated after 13 days, read-out: Barnyardgrass damage rating (100=total damage to plant; 0=no damage to plant)) | pest or weed control at 250 g/ha ([7]; 250 g ai/ha, evaluated after 13 days, read-out: damage to plant, Barnyardgrass (100=total damage to plant; 0=no damage to plant)) | plant injury at 15.625 g/ha (corn (Zea mays) [8]; 15.625 g ai/ha, evaluated after 13 days (100=total damage to plant; 0=no damage to plant), read-out: Corn damage rating) | plant injury at 62.5 g/ha (corn (Zea mays) [8]; 62.5 g ai/ha, evaluated after 13 days, read-out: Corn damage rating (100=total damage to plant; 0=no damage to plant)) | plant injury at 250 g/ha (corn (Zea mays) [8]; 250 g ai/ha, evaluated after 13 days, read-out: damage to plant, Corn (100=total damage to plant; 0=no damage to plant)) | pest or weed control at 15.625 g/ha ([9]; 15.625 g ai/ha, evaluated after 13 days (100=total damage to plant; 0=no damage to plant), read-out: Foxtail, Giant damage rating) | pest or weed control at 62.5 g/ha ([9]; 62.5 g ai/ha, evaluated after 13 days, read-out: Foxtail, Giant damage rating (100=total damage to plant; 0=no damage to plant)) | pest or weed control at 250 g/ha ([9]; 250 g ai/ha, evaluated after 13 days, read-out: damage to plant, Foxtail, Giant (100=total damage to plant; 0=no damage to plant)) | pest or weed control at 15.625 g/ha ([10]; 15.625 g ai/ha, evaluated after 13 days (100=total damage to plant; 0=no damage to plant), read-out: Morningglory, Ivy-leaved damage rating) | pest or weed control at 62.5 g/ha ([10]; 62.5 g ai/ha, evaluated after 13 days, read-out: Morningglory, Ivy-leaved damage rating (100=total damage to plant; 0=no damage to plant)) | pest or weed control at 250 g/ha ([10]; 250 g ai/ha, evaluated after 13 days, read-out: damage to plant, Morningglory, Ivy-leaved (100=total damage to plant; 0=no damage to plant)) | pest or weed control at 15.625 g/ha ([11]; 15.625 g ai/ha, evaluated after 13 days (100=total damage to plant; 0=no damage to plant), read-out: Pigweed, Redroot damage rating) | pest or weed control at 62.5 g/ha ([11]; 62.5 g ai/ha, evaluated after 13 days, read-out: Pigweed, Redroot damage rating (100=total damage to plant; 0=no damage to plant)) | pest or weed control at 250 g/ha ([11]; 250 g ai/ha, evaluated after 13 days, read-out: damage to plant, Pigweed, Redroot (100=total damage to plant; 0=no damage to plant)) | pest or weed control at 15.625 g/ha ([12]; 15.625 g ai/ha, evaluated after 13 days (100=total damage to plant; 0=no damage to plant), read-out: Velvetleaf damage rating) | pest or weed control at 62.5 g/ha ([12]; 62.5 g ai/ha, evaluated after 13 days, read-out: Velvetleaf damage rating (100=total damage to plant; 0=no damage to plant)) | pest or weed control at 250 g/ha ([12]; 250 g ai/ha, evaluated after 13 days, read-out: damage to plant, Velvetleaf (100=total damage to plant; 0=no damage to plant))
